We go through three compounds from patent US20050165000A1, “Pharmaceutical compositions containing an hiv integrase inhibitor and a nonionic surfactant” (priority 2002, published 2005).

Series [1] is described as follows: oral bioavailability when administered to animals. The series is classed as in vivo. As for the experimental part: (§1) Since the physiological pH typically lies within this range, the rate of the drug's dissolution in and absorption from the gastrointestinal tract can be low, particularly when the drug is administered in a solid dosage form. The same or similar formulation difficulties can be expected for other 8-hydroxy-1,6-naphthyridine-7-carboxamides of this class and their salts having low solubility at physiological pH's.
Particle size can affect the oral bioavailability of the active drug substances employed in the pharmaceutical compositions of the invention. […] Accordingly, embodiments of the present invention include each of the pharmaceutical compositions defined and described above, wherein the active drug substance (i.e., Compound I or II or A or B or a pharmaceutically acceptable salt thereof) employed therein has a mean particle size of from about 1 to about 20 μm, or from about 1 to about 10 μm (e.g., from about 3 to about 6 μm wherein 90% of the particles are less than 10 μm).

Series [2] can be described thus: in vitro dispersion of Compound A in aqueous surfactant solutions. The series is classed as physicochemical. As to conditions: aqueous media at physiological pHs, in the absence of a nonionic surfactant or in the presence of SLS; Na salt milled to 3 μm. The source says:
This PK data is consistent with the results of in vitro experiments characterizing the ability of these surfactants to disperse Compound A. In these experiments, Compound A Na salt (milled to a 3 μm mean particle size) was suspended in acidified aqueous solutions of the surfactant, and the surfactants were ranked for effectiveness in dispersing Compound A based on a visual evaluation of the suspension for turbidity and particle size. The visual evaluations were confirmed by measuring the particle size distributions in the suspensions using a laser scattering particle size distribution analyzer. The results of these tests have shown that Compound A drug particles flocculate in aqueous media at physiological pHs in the absence of a nonionic surfactant or in the presence of SLS.

The subject of series [3] is HIV replication. In words: inhibition of acute HIV infection of T-lymphoid cells. The series is classed as cell-based. The source says: The active drug substances employed in the pharmaceutical compositions of the present invention (e.g., the 8-hydroxy-1,6-naphthyridine-7-carboxamide compounds of Formula (I) and (II) and Compounds A and B) are inhibitors of HIV integrase. […] Integrase inhibition activity can be determined, for example, using the assay described in Hazuda et al., J. Virol. 1997, 71: 7005-7011. […] Further description of representative compound embraced by Formula I, assays for measuring their integrase inhibition activity and HIV replication activity can be found in WO 02/30930.

Series [4] has as its target T1, HIV integrase (Human immunodeficiency virus type 1 group M subtype B, UniProt P04585).
T1 construct: strand transfer is catalyzed by recombinant integrase
In words: integrase inhibition assay, strand transfer catalyzed by recombinant integrase. The series is classed as biochemical. The source says: Integrase inhibition activity can be determined, for example, using the assay described in Hazuda et al., J. Virol. 1997, 71: 7005-7011.

A short description of series [5]: wettability and water solubility. Format: physicochemical. As for the experimental part:
as §1

The mark [6] stands for this setting: animals, aqueous suspensions containing 0.5 wt. % methocel and 0.02 wt. % sodium lauryl sulfate.

Take `O=C(NCc1ccc(F)cc1)c1nc(N2CCCCS2(=O)=O)c2cccnc2c1[O-].[Na+]` [Compound A sodium salt, 5-(N-1,4-butanesultam)-N-(4-fluorobenzyl)-8-hydroxy-1,6-naphthyridine-7-carboxamide sodium salt]: the oral bioavailability result is listed as “satisfactory oral bioavailability” in series [1] (setting [6]); “poor oral bioavailability” in series [1] (animals, wet granulated compressed tablets with lactose, hydroxypropylcellulose, Na croscarmellose, microcrystalline cellulose, Mg stearate (no surfactant)); “substantially lower oral bioavailability” in series [1] (capsules containing bulk Compound A sodium salt, versus the suspension).

For `O=C(NCc1ccc(F)cc1)c1nc(N2CCCCS2(=O)=O)c2cccnc2c1O` [Compound A, 5-(1,1-dioxido-1,2-thiazinan-2-yl)-N-(4-fluorobenzyl)-8-hydroxy-1,6-naphthyridine-7-carboxamide], the “dispersion of drug particles (turbidity, particle size)” value in series [2] is reported as “flocculate”. The “inhibition of HIV replication” value in series [3] is “very effective”. The “HIV integrase inhibition in the strand transfer assay” value in series [4] was “potent HIV integrase inhibitors”. For the same compound, in series [5], the wettability result is given as “poor wettability”. The water solubility entry in series [5] (pH's between about 2 and about 8) is reported as “low water solubility”. For the same compound, the oral bioavailability entry in series [1] (setting [6]) is reported as “satisfactory oral bioavailability”.

Turning to `CNC(=O)c1cc(F)ccc1CNC(=O)c1nc(N2CCCCS2(=O)=O)c2cccnc2c1O` [Compound B, N-{4-fluoro-2-[(methylamino)carbonyl]benzyl}-5-(1,1-dioxido-1,2-thiazinan-2-yl)-8-hydroxy-1,6-naphthyridine-7-carboxamide], the “inhibition of HIV replication” value in series [3] is “very effective”. Besides, in series [4], the “HIV integrase inhibition in the strand transfer assay” value was “potent HIV integrase inhibitors”.
